Test results: patent publication US7998460B2, “Prevention of deficits in neurogenesis with anti-inflammatory agents” (The Board of Trustees of the Leland Stanford Junior …, priority 2003, dated 2011)

Columns and labels:
neural progenitor cells = assay: Differentiation of mouse neural progenitor cells with recombinant MCP-1, 5 days; format: cell-based; conditions: rmMCP-1 up to 100 ug/ml
Description: To determine if MCP-1 was acting directly on neural progenitor cells to mediate these effects, brains from wild type, MCP-1^−/−, or CCR2^−/− mice were enzymatically dissociated and neurosphere cultures established in growth medium (Neurobasal-A, B27 supplement, 10 ng/ml EGF, 20 ng/ml FGF-2). Neurospheres were dissociated at passage 2-3 and plated as monolayers on laminin coated dishes and then induced to differentiate by replacing growth medium with differentiation medium (Neurobasal-A, B27, 1 ng/ml FGF-2, 100 nM all-trans retinoic acid, 10 ng/ml BDNF, 10 ng/ml NT3). Increasing concentrations of recombinant mouse MCP-1 (rmMCP-1) were added to the medium and cells were allowed to differentiate for 5 days. Cells were then fixed and stained for Dcx (FIG. 11C-C). Within 5 days of differentiation, a proportion of cells became positive for Dcx. […] Similarly, addition of rmMCP-1 up to a final concentration of 100 ug/ml had no effect on the number of neurons produced.
Progenitor Cell Culture and Differentiation Whole brains from PO mouse pups were enzymatically digested with a mixture of papain, neutral protease, and DNAse. Neurospheres were cultured on uncoated plates with medium containing Neurobasal A (Gibco), L-glutamine, PSF, B-27 without vitamin A, 40 ng/ml FGF-2, and 40 ng/ml EGF. Cultures were passaged in parallel when reaching confluence and total viable cell counts were made using a hemocytometer to score trypan blue-excluding cells at each passage. Cells were induced to differentiate by plating dissociated cells into laminin-coated multi-chamber tissue culture slides (Nunc) in differentiation media, Neurobasal A, B-27 without vitamin A, 1% fetal bovine serum, 100 nM all trans-retinoic acid, 1 ng/ml FGF-2, 10 ng/ml BDNF, and 10 ng/ml NT3. […] Total nuclei per sample site was scored using DAPI, neurons were scored on the basis of Dcx immunoreactivity. No significant differences were detected in either growth or differentiation between wild type and MCP-1^−/− or CCR2^−/− mice

C57BI/6 mice = assay: Locomotor chambers and Morris water maze after LPS in mice; format: in vivo, mouse; conditions: for distance swum to hidden platform in training, NSAID alone: first training session, no LPS; for probe trial performance, NSAID alone: no LPS challenge
Description: Behavioral testing. Locomotor activity was measured in 17×17 inch chambers lined with three 16-beam infrared arrays in photocell boxes (MED Associates, Inc., St. Albans, Vt.). The mice were placed into the chambers and their locomotor activity was recorded for 20 minutes 4 days after LPS was injected (on Day 4). A 50 msec scanning rate was used for measuring beams broken. Distance traveled was analyzed for estimates of locomotion based on the movement of a given distance and resting delay (movement in a given period) using Open Field Activity software (MED Associates, Inc., St. Albans, Vt.).
Hippocampus-dependent learning and memory was assessed in the standard Morris water maze task. All hippocampus-dependent training and testing was conducted in a black circular tank (170 cm diameter×43 cm height) filled water made opaque using white non-toxic Tempra paint (Rich Art Color Co. Inc, Northvale, Calif.; training and testing). A platform (13 cm diameter×28.5 cm height) was hidden 1 cm below the water surface for platform shaping and training trials. Time and distance traveled in the pool was recorded using Videotrack Automated Behavioral Analysis System (Viewpoint Life Sciences Inc., Otterburn Park, Quebec).
Platform shaping began three days before platform training (Days 25-27). In the absence of extra-maze cues, mice were released from random points in the pool (filled with clearwater) near the platform and gently guided to the platform. Shaping trials continued until the mouse remained on the platform for 15 s over 3 consecutive trials on each of the three sessions.
[…] In the presence of extra-maze cues, the mice were released from the middle of the east, south, or west quadrant, facing the pool wall, and were given 120 s to find the platform hidden beneath opaque water in the center of the north quadrant. […] Sessions of 6 training trials (inter-trial interval of approximately 30 min) were conducted daily until all the mice located the platform in an average of 15 s or less within a session. […] Pathlength and latency were analyzed as measures of learning, swim speed was analyzed as a measure of sensorimotor ability and % time spent in outer annulus was analyzed as a measure of anxiety.
Probe Trial Testing was conducted at 1 week after mice reached criterion in the platform training phase of the experiment. The room setup was identical for platform training and probe trials, with the exception that the platform was removed from the pool during probe trials. The mice were given a single trial in which they were released from the center of the pool and then after 3 minutes were removed from the location that held the platform during training trials. Percent time and distance spent in each quadrant were analyzed as measures of memory, swim speed and total distance swum were analyzed as measures of sensorimotor ability and % time and distance spent in the outer annulus were analyzed as measures of anxiety. After the last probe trial, we ran four daily sessions of reversal trials (4 trials per session) in which mice were given 120 s to locate the platform hidden beneath opaque water in the south quadrant to better interpret whether probe trial performance was indicative of memory or perseveration. […] A visible platform session (2 trials) was administered after the final reversal trial to further test sensorimotor ability. Reversal and visible platform trial performance was scored identically to platform training performance.

[1] = tested on: adult hippocampus-derived neural precursor cells; assay: In vitro neuronal differentiation (doublecortin) of hippocampal neural progenitor cells, 60 hours; format: cell-based, rat; conditions: for effect on in vitro neurogenesis (Dcx-expressing cells relative to control): 60 hours differentiation
Text: Neuroinflammation could inhibit neurogenesis by a variety of mechanisms, including stimulation of the HPA axis with subsequent elevation of gluccocorticoids, alterations in the relationships between progenitor cells and cells of the neuro-vasculature, or direct effects of activated microglia on the precursor cells. To determine the extent to which microglial activation might directly affect neural stem/progenitor cells, microglia were stimulated in vitro with LPS. LPS is a potent activator of microglia and up-regulates the elaboration of pro-inflammatory cytokines, including IL-6 and TNF-α. LPS-stimulated or resting microglia were then co-cultured with normal neural stem cells from the hippocampus under conditions that typically stimulate the differentiation of 30 to 40% of the progenitor cells into immature Dcx-expressing neurons (normalized to a value of 1 in FIG. 2A, control). Neurogenesis in the presence of microglia was assessed as the increase or decrease in Dcx-expressing cells relative to control. Co-culture with activated, but not resting, microglia decreased in vitro neurogenesis to approximately half of control levels (FIG. 2A). LPS added directly to precursor cells had no effect on neurogenesis.
To determine if this effect was due to soluble factors or due to cell-cell contact, hippocampal precursor cells were differentiated in the presence of media pre-conditioned by resting or activated microglia.
Activated microglia produce the potent pro-inflammatory cytokines interleukin-1β (IL-1β), tumor necrosis factor-α (TNF-α), interferon-γ (INF-γ) and interleukin-6 (IL-6). Progenitor cells were allowed to differentiate in the presence of each cytokine and the relative expression of Dcx was scored after 60 hours. […] Addition of neutralizing anti-IL-6 antibody to CM from activated microglia was able to fully restore in vitro neurogenesis (FIG. 2A). This implicated IL-6 as a key inhibitor of neurogenesis in microglial CM. […] In contrast to neurogenesis, gliogenesis was unaffected by IL-6 exposure as indicated by the lack of change in the number of cells expressing the astrocyte (glial fibrillary acidic protein, GFAP) or early oligodendrocyte (NG2) markers relative to control cultures (FIG. 2E). The hippocampal precursors used in this study do express the IL-6 receptor, as confirmed by RT-PCR (FIG. 5).
Progenitor Cell Culture Adult hippocampus-derived neural precursor cells were isolated from adult rat hippocampus and cultured as previously described. Briefly, adult female Fisher-344 rats were deeply anesthetized with sodium pentobarbital and were dissected immediately. Hippocampi were enzymatically dissociated with papain (2.5 U/ml; Worthington, Freehold, N.J.)-dispase II (1 U/ml; Boehringer Mannheim, Indianapolis, Ind.)-DNase I (250 U/ml, Worthington) solution. Digested tissue was then washed with DMEM-10% fetal calf serum (FCS) and subsequently mixed with PBS-equilibrated Percoll solution to a final concentration of 35% Percoll. The Percoll solution was made by mixing nine parts of Percoll (Amersham Pharmacia Biotech, Uppsala, Sweden) with one part of 10× PBS. The cell suspension was then fractionated by centrifugation for 10 min at 1000×gravity. Floating myelin and tissue debris were discarded and the cell pellet re-suspended in 65% Percoll solution and fractionated again by centrifugation for 10 min at 1000×g. The floating neural precursors were collected, washed free of Percoll, and plated onto poly-L-ornithine/laminin-coated dishes in DMEM/F12 (1:1) containing 10% FCS medium for 24 hrs; then medium was replaced with serum-free growth medium consisting of DMEM/F12 (1:1) supplemented with N2 supplement (Life Technologies, Gaithersburg, Md.) and 20 ng/ml of human recombinant FGF-2 (Peprotech, Rocky Hill, N.J.). Cell lines were labeled via infection with replication deficient GFP-expressing recombinant retrovirus LZRS-CAMut4GFP. […]

For “rmMCP-1: recombinant mouse monocyte chemoattractant protein-1 (Peprotech)”, the “extent of neuronal arborization” value (neural progenitor cells) was “Neither was the extent of arborization influenced”, the “number of Dcx-positive neurons produced” value (neural progenitor cells) was “no effect” and the “number of Dcx-positive neurons produced” value (neural progenitor cells; listed as MCP-1) was “does not directly affect”.

`Cc1ccc(-c2cc(C(F)(F)F)nn2-c2ccc(S(N)(=O)=O)cc2)cc1` [Celebrex, celecoxib] was tested, and the “distance swum to hidden platform in training, NSAID alone” value (C57BI/6 mice) was “slight but significant increased distance swum”, the “distance swum to hidden platform in training, NSAID alone” value (C57BI/6 mice; listed as celebrex) was “slight but significant initial increase in swimming distance” and the “probe trial performance, NSAID alone” value (C57BI/6 mice) was “performed as badly as LPS-treated mice”. For the same molecule, the “probe trial performance, NSAID alone” value (C57BI/6 mice; listed as celebrex) was “alone significantly impaired memory”.

With TNF-α the “decrease of in vitro neurogenesis (relative expression of Dcx)” value ([1]; recombinant IL-6 50 ng/ml or TNF-α 20 ng/ml, 60 hours) was “approximately 50%”.

B1: IL-1β: recombinant rat interleukin 1β (protein, UniProt Q63264 117-268, looked up)
Interleukin-1 beta: VPIRQLHCRLRDEQQKCLVLSDPCELKALHLNGQNISQQVVFSMSFVQGETSNDKIPVALGLKGLNLYLSCVMKDGTPTLQLESVDPKQYPKKKMEKRFVFNKIEVKTKVEFESAQFPNWYISTSQAEHRPVFLGNSNGRDIVDFTMEPVSS
For B1, the “effect on in vitro neurogenesis (Dcx-expressing cells relative to control)” value [1] was “not significant”.

B2: INF-γ: recombinant rat interferon γ (protein, UniProt P01581 23-156, looked up)
Interferon gamma: QGTLIESLESLKNYFNSSSMDAMEGKSLLLDIWRNWQKDGNTKILESQIISFYLRLFEVLKDNQAISNNISVIESHLITNFFSNSKAKKDAFMSIAKFEVNNPQIQHKAVNELIRVIHQLSPESSLRKRKRSRC
In the case of B2, the “effect on in vitro neurogenesis (Dcx-expressing cells relative to control)” value [1] is reported as “not significant”.
